Data set [1] deals with T1, Bcl-xL (Homo sapiens, UniProt Q07817, DEL27-82).
T1 construct: 6xHis-SUMO (N, cleaved yes); made in house; host or cells: Escherichia coli BL21(DE3)
Description: Isothermal titration calorimetry of peptides with Bcl-xL. The data set is classed as binding. The following applies: ITC, 25 °C, peptide 800 μM. The text has this: The codon-optimized DNAs encoding Bcl-xLΔTM (the flexible loop, residues 27–82, and the transmembrane domain, residues, 197–233, are deleted, total […], named as Bcl-xL thereafter) was ordered from Genewiz (www.genewiz.com). The recombinant Bcl-xL with N-terminal SUMO-fused 6× His tag was generated by the insertion of the PCR products into pETSUMO vector (Invitrogen; www.thermofisher.com) and verified by sequencing. Recombinant proteins were expressed in Escherichia coli (BL21/DE3) strain overnight at 20 °C and proteins were induced by 0.4 mM isopropyl β-D-thiogalactoside. Cells were harvested by centrifugation and the pellets were re-suspended and passed through a cell disruptor (www.avestin.com) three times. After ultracentrifugation at 40,000 rpm for 1 h, the supernatant for His-tagged recombinant proteins were purified through Ni^2+ affinity column, cleaved by Ulp-1, followed by HiLoad Superdex S-75 26/60 column (GE Healthcare). The purified proteins were dialyzed against stabilization buffer containing 20 mM Tris-HCl (pH 7.0) and 100 mM NaCl and concentrated to 10–15 mg/ml in a Centriprep-30 (Amicon) for subsequent crystallization and biochemical analysis.
Microcalorimetry was used for all measurements. Bcl-xL protein was prepared at a final concentration of 10 μM in a buffer containing 25 mM Tris-HCl (pH 8.0). The ABT-263 was dissolved in the same buffer to a final concentration of 500 μM, while the peptides were dissolved to a final concentration of 800 μM. All experiments were carried out at 25 °C. Data were analyzed using the software Origin (OriginLab).
Background: In ITC the heat of successive injections is recorded.

In data set [2] the test system is HepG2-NTCP cells. Description: Cell viability (CCK8 assay) of HBV-infected HepG2-NTCP cells. It counts as cell-based. The note with it: CCK8, 200 µg/mL, day 8 after HBV infection. Details: unit not given here. On the technique in general: Tetrazolium dyes change colour on reduction, which living cells bring about.
Data set [3] concerns HepG2-NTCP cells. Described as above. The data set is classed as cell-based. The following applies: for Cell viability: day 8 after HBV infection. On the set-up: Cell viability: unit not given here. How it is done: Fig. 6 The HBx-aa118–127 peptide, but not ABT-263, inhibits HBV replication and transcription in HepG2.2.15 cells. a HepG2.2.15 cells were treated with 125, 250, 500, and 1000 nM of ABT-263 for 2 days. Cytoplasmic HBV viral particles were isolated and the viral DNA replication intermediates were quantified (Methods). The results represent the fold change of the replicative intermediates in HepG2.2.15 cells from the indicated treatments, compared with those without treatment. b HepG2.2.15 cells were treated with the indicated concentrations of ABT-263 for 2 days. The lysate was analyzed by immunoblotting using antibodies to caspase-3 (CASP3) and GAPDH (glyceraldehyde 3-phosphate dehydrogenase). c, d The HBx-aa113–135, HBx-aa118–127, or the control peptides were delivered into HepG2.2.15 cells using PEP-1 nanoparticles (Methods). The levels of HBV DNA (c) and the levels of HBV S-antigen (HBsAg) expression (d) in culture medium collected from HepG2.2.15 cells were measured (Methods). The results are shown as fold change compared to that of the control peptide. e–g HepG2-NTCP cells were transfected with HBx118–127 peptide with concentration of […], and 50 μg/ml or unrelated control peptide during HBV infection (multiplicity of infection (MOI) = 200), respectively. e HBV e-antigen (HBeAg), f HBV DNA, and g cell viability were measured at day 8 after HBV infection. Data shown represent mean ± SD. Significance is indicated on the top. Not significant (ns): *P < 0.05, **P < 0.01; two-tailed unpaired t tests (n = 3 biologically independent samples). Source data are provided as a Source Data file
HBx-aa118-127 peptide treatment.
obvious cytotoxicity at concentrations between 12.5-200 µg/mL (Fig. 6g). Taken together, […]

Where [4] appears, read: Bcl-xL 10 μM in 25 mM Tris-HCl (pH 8.0), read-out: dissociation constant.

These results are taken from article PMC6642116, “Structural and functional analyses of hepatitis B virus X protein BH3-like domain and Bcl-xL interaction” (Nature Communications, 2019).

The structures appear in SMILES notation. Like-named read-outs stand apart in the source and are kept apart here. Residues, ends and D or L forms follow the SMILES beside them.

For the compound `CC[C@H](C)[C@H](NC(=O)[C@H](CCC(=O)O)NC(=O)[C@H](CCC(=O)O)NC(=O)CNC(=O)[C@H](CC(C)C)NC(=O)[C@H](CCC(=O)O)NC(=O)[C@H](CCC(=O)O)NC(=O)[C@H](Cc1c[nH]c2ccccc12)NC(=O)[C@H](CC(=O)O)NC(=O)[C@H](CCCCN)NC(=O)[C@H](Cc1ccccc1)NC(=O)[C@@H](NC(=O)[C@H](CS)NC(=O)[C@H](CC(=O)O)NC(=O)[C@@H](N)CCCCN)C(C)C)C(=O)N[C@@H](CCCNC(=N)N)C(=O)N[C@@H](CC(C)C)C(=O)N[C@@H](CCCCN)C(=O)N[C@H](C(=O)N[C@@H](Cc1ccccc1)C(=O)N[C@H](C(=O)N[C@@H](CC(C)C)C(=O)NCC(=O)O)C(C)C)C(C)C` [HBx-aa113–135], in data set [1] (setting [4]), the Kd amounted to 26.5 ± 13.7 µM.

Consider `CC[C@H](C)[C@H](NC(=O)[C@H](CCC(=O)O)NC(=O)[C@H](CCC(=O)O)NC(=O)CNC(=O)[C@H](CC(C)C)NC(=O)[C@H](CCC(=O)O)NC(=O)[C@H](CCC(=O)O)NC(=O)[C@H](Cc1c[nH]c2ccccc12)NC(=O)[C@H](CC(=O)O)NC(=O)[C@@H](N)CCCCN)C(=O)O` [HBx-aa118–127] (H-KDWEELGEEI-OH), for which the Cell viability in data set [2] (replicate 1) was found to be 96.104; in data set [2] (replicate 2), 101.260; in data set [2] (replicate 3), 101.966; in data set [3] (CCK8, 12.5 µg/mL, replicate 1) it was 94.534; in data set [3] (CCK8, 12.5 µg/mL, replicate 2), 96.726; in data set [3] (CCK8, 12.5 µg/mL, replicate 3) it was 98.429. For the same compound, the Cell viability in data set [3] (CCK8, 50 µg/mL, replicate 1) was determined as 92.904; in data set [3] (CCK8, 50 µg/mL, replicate 2), 96.191; in data set [3] (CCK8, 50 µg/mL, replicate 3), 97.303. Besides, in data set [3] (HepG2-NTCP, 12.5, 50, and 200 µg/ml), the “cytotoxicity (in words)” value is “no obvious cytotoxicity”. Further, the Kd in data set [1] (setting [4]) was 10 ± 2.95 µM; in data set [1] (Bcl-xL 10 μM presaturated with ABT-263, 25 mM Tris-HCl (pH 8.0), read-out: dissociation constant, Bcl-xL presaturated with ABT-263), 21 ± 4.05 µM.
